System: PD-L1 expression in 4T1 cells
Assay: Immunoblot analysis of PD-L1 expression
Format: cell-based, mouse
Conditions: 4T1 cells cultured 48 h after exposure at 42 ℃ for 10 min
Protocol: fluctuations were continuously recorded using an infrared thermal imaging camera (FLIR E50, USA).
Cell lysis and immunoblotting
Cells were washed with PBS and lysed using RIPA buffer supplemented with protease inhibitors. The lysates were subjected to SDS-PAGE (12% or 10% Bis-Tris gel) and subsequently transferred onto a nitrocellulose membrane. The membrane was blocked with TBS-T containing 5% non-fat dry milk, followed by overnight incubation with the primary antibody at 4 °C. After triplicate washing with TBS-T, the membrane was incubated with the HRP-conjugated secondary antibody for 1 h at room temperature and developed using ECL detection reagents.
The TRIzol reagent was used for RNA extraction according to the manufacturer's instructions. Total RNA was reverse -transcribed into cDNA using an iScript cDNA synthesis kit. Quantitative analysis of the target genes was performed using the Universal SYBR Green Supermix qPCR kit. GAPDH was used as the reference gene for relative quantification normalization, with details of the primer sequences provided in Supplementary Table 1. […]
The lysis buffer was then neutralized by adding an equal volume of RPMI 1640 medium, followed by centrifugation at 500 × g for 3 min. […] After incubation, the cells were washed with PBS to remove T cells and debris, followed by crystal violet staining to quantify the live cancer cells. […]

## GFTATPPPDSPQEP/PEIF [PTPRF, fluorinated PTPR: PTPR combined with fluorinated polyethyleneimine PEIF]
  concentration that effectively inhibited PD-L1 expression: 10 µM

From publication PMC12591182, “PD‐L1‐Targeting Biomimetic Photoresponsive Thermosensitive Liposomes for Triple‐Negative Breast Cancer” (Advanced Science, 2025)
